According to article PMC10344949, “Arachidonic acid reverses cholesterol and zinc inhibition of human voltage-gated proton channels” (The Journal of Biological Chemistry, 2023):

Molecular target: T1, hHv1 (human voltage-gated proton channel) (Homo sapiens, UniProt Q96D96)
T1 construct: gene HVCN1; no truncation stated
T1 sequence (Q96D96 1-273): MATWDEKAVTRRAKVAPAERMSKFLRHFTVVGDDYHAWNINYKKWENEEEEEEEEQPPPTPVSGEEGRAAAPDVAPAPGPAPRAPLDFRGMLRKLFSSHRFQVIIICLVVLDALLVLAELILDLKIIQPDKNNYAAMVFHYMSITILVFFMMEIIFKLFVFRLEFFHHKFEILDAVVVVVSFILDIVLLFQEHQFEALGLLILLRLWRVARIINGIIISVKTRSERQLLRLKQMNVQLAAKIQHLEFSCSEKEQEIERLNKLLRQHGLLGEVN
Experiment: liposome proton flux assay (ACMA quenching), Hill fit
Assay type: biochemical
Conditions: read-out: half activation concentration (Kd)

CCCCC/C=C\C/C=C\C/C=C\C/C=C\CCCC(=O)O [arachidonic acid]
EC50: 7.2 µM
